Measurements from patent publication US5821219A (priority 1995, dated 1998).

Assays:
[1] = molecular target: T1, novel mammalian opioid receptor (LC132, MSOR, OFQR) (Rattus norvegicus, UniProt P35370); test: biochemical; type: binding
T1 construct: The entire coding region of the receptor cDNA insert was subcloned into the RcRSV vector; expressed in transfected cells

mice [2] = test: Reversal of morphine analgesia, 49° C. tail withdrawal latency; type: in vivo, mouse; conditions: morphine sulfate 5 mg/kg sc
mice [3] = test: Morphine hypothermia and Straub tail in DBA/2J mice
mice [4] = test system: mice; parameters: dose or concentration left out as unconfirmed
mice [5] = test: Acetic acid abdominal constriction (writhing) test; type: in vivo, mouse; conditions: NAL 1 mg/kg and 10 mg/kg sc
Experimental: The AC assay was a modification of the technique originally described by Koster et al. Mice (N=9-15 per group) were acclimated to individual cylindrical Plexiglass observation chambers for >30 minutes. […] A separate group of Sal-treated mice received no icv injection (None). Between 5 and 10 minutes later, all mice were given an intraperitoneal (ip) injection of 0.9% acetic acid and placed back in their observation chambers. For the next 30 minutes, the number of abdominal constrictions (lengthwise stretches of the torso with a concomitant concave arching of the back) were counted and recorded. Four mice in separate chambers were observed simultaneously by a single experimenter blind to drug condition.

T1 sequence (P35370 whole entry): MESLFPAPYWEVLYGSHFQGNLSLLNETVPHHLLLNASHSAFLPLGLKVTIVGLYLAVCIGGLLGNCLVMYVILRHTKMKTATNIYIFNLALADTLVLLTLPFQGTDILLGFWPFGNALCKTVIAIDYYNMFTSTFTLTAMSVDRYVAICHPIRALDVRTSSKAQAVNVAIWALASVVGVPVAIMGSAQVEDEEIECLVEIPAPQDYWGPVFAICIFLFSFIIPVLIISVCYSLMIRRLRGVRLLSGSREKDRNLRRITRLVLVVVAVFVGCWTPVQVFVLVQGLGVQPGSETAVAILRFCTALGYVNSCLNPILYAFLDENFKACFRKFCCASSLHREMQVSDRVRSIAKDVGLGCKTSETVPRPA

Compound: C[C@@H](NC(=O)[C@@H](N)Cc1ccc(O)cc1)C(=O)NCC(=O)N(C)[C@@H](Cc1ccccc1)C(=O)NCCO [DAMGO, Tyr-DAla-Gly-Met-Phe-Gly-ol]
- specific binding of the radioactively-labeled ligand [1]: no specific binding

Compound: CC1(C)SSC(C)(C)[C@@H](NC(=O)[C@@H](N)Cc2ccc(O)cc2)C(=O)NCC(=O)N[C@@H](Cc2ccccc2)C(=O)N[C@H]1C(=O)O [DPDPE, c[D-penicillamine^2, D-penicillamine^5]enkephalin]
- specific binding of the radioactively-labeled ligand [1]: no specific binding

Compound: CCC12CCN(CC3(O)CC3)C(Cc3ccc(O)cc31)C2(C)C (stereo not shown) [bremacozine]
- specific binding of the radioactively-labeled ligand [1]: no specific binding

Compound: CN1CC[C@]23c4c5ccc(O)c4O[C@H]2[C@@H](O)CC[C@H]3[C@H]1C5 [dihydromorphine]
- specific binding of the radioactively-labeled ligand [1]: no specific binding

Compound: CC[C@]12CCN(CC3CC3)[C@H](C(=O)c3ccc(O)cc31)[C@@H]2C [ethylketocyclazocine]
- specific binding of the radioactively-labeled ligand [1]: no specific binding

Compound: CCC(=O)C(CC(C)N(C)C)(c1ccccc1)c1ccccc1 (stereo not shown) [methadone]
- Bmax [1]: 400-450 fentomoles/μg protein
- Kd [1]: ~0.1 nM
- specific binding of the radioactively-labeled ligand [1]: specific binding was found

Compound: CN1CC[C@]23c4c5ccc(O)c4O[C@H]2[C@@H](O)C=C[C@H]3[C@H]1C5 [morphine]
- duration of analgesia (mice [2]): about 2 hours
- time of peak analgesia (mice [2]; post-injection): 30 min
- decrease in body temperature (mice [3]; MOR 20 mg/kg i.p., DBA/2J mice): 6 °C
- Straub tail (mice [3]; morphine 20 mg/kg): produced Straub tail

Compound: C=CCN1CC[C@]23c4c5ccc(O)c4O[C@H]2C(=O)CC[C@@]3(O)[C@H]1C5 [naloxone]
- hyperalgesia in TW test (mice [4]): In no case did any mouse treated with OFQ or naloxone exhibit hyperalgesia
- stress-induced analgesia: post-injection increase in TW latency (mice [4]; 46° C. water, p<0.05): attenuated the 4 s post-injection increase in TW latency
- decreased number of abdominal constrictions due to SIA (mice [5]): reversed

Compound: β-endorphin
- specific binding of the radioactively-labeled ligand [1]: no specific binding
